This is an account of results in ChEMBL document CHEMBL1201862, “PubChem BioAssay data set” (2004).

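Tested at 5 concentrations; 48 h exposure; 96-well plates; endpoints linearly interpolated, else capped at highest concentration. GI50 marks 50% less growth.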 Active and inactive are the calls of the source. Cut-off read from the data, not from the text of the source: active = GI50 up to about 1.1 µM and inactive = higher. A value given as a limit tells only on which side of the number the result lay.

Test systems include A498; A549; CAKI-1; CCRF-CEM; HCT-15; HOP-62; HOP-92; IGROV-1; M14; OVCAR-8; RXF 393; SK-OV-3; SW-620; UO-31; TK-10; NCI-H226.
What all share (assay): NCI anticancer screen, dose series, 48 h

As for `O=C(O)c1ccc([N+](=O)[O-])c2c(=O)c3ccccc3[nH]c12`, the GI50 in the assay on A498 was > 100 µM (inactive); in the assay on A549, > 100 µM (inactive); in the assay with CAKI-1 it was > 100 µM (inactive); in the assay with CCRF-CEM, > 100 µM (inactive); in the assay with HCT-15, above 100 µM; in the assay with HOP-62, > 100 µM (inactive). In addition, the GI50 with HOP-92, with IGROV-1, with M14, in the assay with OVCAR-8, with RXF 393 and with SK-OV-3 was > 100 µM (inactive) throughout. In addition, the GI50 in the assay with SW-620 and in the assay with UO-31 was > 100 µM (inactive) throughout.

Take `CN(CC(=O)O)S(=O)(=O)c1ccc(F)cc1`: the GI50 was > 100 µM (inactive) with A498; > 100 µM (inactive) in the assay on A549; > 100 µM (inactive) with CAKI-1; > 100 µM (inactive) in the assay on CCRF-CEM; above 100 µM with HCT-15; > 100 µM (inactive) in the assay on HOP-92. Moreover, the GI50 in the assay with IGROV-1, with M14, in the assay on OVCAR-8, in the assay with RXF 393, with SK-OV-3 and in the assay with SW-620 was > 100 µM (inactive) each time. Also, the GI50 in the assay with TK-10 and with UO-31 was > 100 µM (inactive) throughout.

Take `O/N=C(\c1nc2ccc(Cl)cc2nc1O)C(O)c1ccc(Cl)cc1Cl` (stereo unspecified): the GI50 in the assay with A549 was > 100 µM (inactive); in the assay with CAKI-1, > 100 µM (inactive); in the assay with CCRF-CEM, > 100 µM (inactive); with HCT-15 it was above 100 µM; in the assay with HOP-62, > 100 µM (inactive); in the assay on HOP-92 it was > 100 µM (inactive). The GI50 with IGROV-1, with M14, in the assay with NCI-H226, in the assay on OVCAR-8, in the assay with RXF 393 and in the assay with SK-OV-3 was > 100 µM (inactive) throughout. The GI50 with SW-620 and with UO-31 was > 100 µM (inactive) in each case.

On to `CCCCN1C(=O)C2c3[nH]c4ccccc4c3C3CCCCC3C2C1=O.CCCCN1C(=O)C2c3[nH]c4ccccc4c3[C@@H]3CCCCC3C2C1=O` (stereo unspecified), for which the GI50 in the assay with A549 is 13.9 µM (inactive); with CAKI-1 it was 6.18 µM (inactive); in the assay on CCRF-CEM it was 16.4 µM (inactive); in the assay with HCT-15, 29.4 µM; in the assay on HOP-62 it was 6.4 µM (inactive); with IGROV-1, 19.1 µM (inactive). Besides, the GI50 with M14 is 13.4 µM (inactive); in the assay with OVCAR-8 it was 11.8 µM (inactive); in the assay on SK-OV-3, 22.3 µM (inactive); in the assay with SW-620, 37.8 µM (inactive); with TK-10, 13.7 µM (inactive); with UO-31, 14.8 µM (inactive).

Turning to `COc1cc(C2C(C(=O)Nc3cc(F)c(F)cc3F)=C(C)NC(C)=C2C(=O)Nc2cc(F)c(F)cc2F)ccc1O`, the GI50 in the assay with A498 is 19.4 µM (inactive); with A549 it was 24.6 µM (inactive); with CAKI-1 it was 12.3 µM (inactive); in the assay with CCRF-CEM, 14 µM (inactive); with HOP-62, 12.8 µM (inactive); in the assay on HOP-92 it was 0.982 µM (active). The GI50 with IGROV-1 is 23.1 µM (inactive); with M14, 25.2 µM (inactive); in the assay on NCI-H226, 23.6 µM (inactive); with OVCAR-8, 25.4 µM (inactive); with RXF 393 it was 10.6 µM (inactive); in the assay with SW-620, 37.7 µM (inactive). The GI50 with TK-10 is 28.3 µM (inactive); in the assay with UO-31, 8.04 µM (inactive).

Turning to `COc1ccc(/C=[N+](\[O-])[C@H](COCc2ccccc2)c2ccccc2)cc1`, the GI50 in the assay with A498 is > 100 µM (inactive); with A549, > 10 µM (inactive); with CCRF-CEM, 35.7 µM (inactive); with HOP-62, > 100 µM (inactive); with HOP-92, 23.9 µM (inactive); in the assay with IGROV-1 it was > 100 µM (inactive). Further, the GI50 with OVCAR-8 was > 100 µM (inactive); in the assay on RXF 393, 98.9 µM (inactive); in the assay on SK-OV-3, > 100 µM (inactive); with SW-620, 92 µM (inactive); in the assay on TK-10, > 100 µM (inactive); with UO-31 it was 17.3 µM (inactive).

`COc1ccc2oc(-c3cc4cc(OC)ccc4o3)cc2c1`: the GI50 is > 100 µM (inactive) in the assay on A549; > 100 µM (inactive) with CAKI-1; > 100 µM (inactive) with CCRF-CEM; above 100 µM in the assay on HCT-15; > 100 µM (inactive) in the assay with HOP-62; > 100 µM (inactive) in the assay on HOP-92. The GI50 in the assay on IGROV-1, in the assay with M14, in the assay on OVCAR-8, in the assay with RXF 393, with SK-OV-3 and in the assay with SW-620 was > 100 µM (inactive) each time. The GI50 in the assay with TK-10 and in the assay with UO-31 was > 100 µM (inactive) in each case.

For `COCC(O)CN1C(N)=NC(O)C1O` (stereo unspecified), the GI50 in the assay on A549, in the assay on CAKI-1, in the assay with HOP-62, in the assay with HOP-92, with M14 and in the assay on NCI-H226 was > 100 µM (inactive) in each case. Also, the GI50 in the assay on OVCAR-8, in the assay on RXF 393, in the assay on SW-620, in the assay with TK-10 and with UO-31 was > 100 µM (inactive) throughout.

For the compound `CC(=O)OC1COC(N2C(=O)C(=O)c3cc(Br)c([N+](=O)[O-])cc32)C(OC(C)=O)C1OC(C)=O` (stereo unspecified), the GI50 in the assay on A549 is > 100 µM (inactive); with CAKI-1, > 100 µM (inactive); in the assay on CCRF-CEM, 37.6 µM (inactive); with HCT-15, above 100 µM; in the assay with HOP-62, > 100 µM (inactive); with HOP-92 it was 34.8 µM (inactive). The GI50 in the assay with IGROV-1 was > 100 µM (inactive); in the assay with M14, > 100 µM (inactive); with NCI-H226, > 100 µM (inactive); in the assay with OVCAR-8 it was 83.6 µM (inactive); in the assay on RXF 393 it was 32.1 µM (inactive); in the assay on SK-OV-3 it was 96.8 µM (inactive). The GI50 in the assay on SW-620 and in the assay on TK-10 was > 100 µM (inactive) each time.

For `COc1ccc(C2ON(c3ccccc3)CC=C2C)cc1` (stereo unspecified), the GI50 is 62.2 µM (inactive) in the assay on A549; 47.8 µM (inactive) in the assay on CAKI-1; 33.7 µM (inactive) in the assay on CCRF-CEM; 65.9 µM in the assay on HCT-15; > 100 µM (inactive) with HOP-62; > 100 µM (inactive) in the assay with IGROV-1. In addition, the GI50 in the assay with M14 was 80.7 µM (inactive); with NCI-H226 it was > 100 µM (inactive); in the assay on OVCAR-8, > 100 µM (inactive); in the assay with RXF 393, 34.4 µM (inactive); with SK-OV-3, > 100 µM (inactive); in the assay with SW-620 it was > 100 µM (inactive). In addition, the GI50 with TK-10 is > 100 µM (inactive); with UO-31 it was 34 µM (inactive).

Consider `CCc1ccccc1NC(=O)/C(CC(=O)c1c(C)[n+]([O-])c2ccccc2[n+]1[O-])=N\NS(=O)(=O)c1ccc(C)cc1`, for which the GI50 was > 100 µM (inactive) with A498; 34.9 µM (inactive) in the assay on A549; 16.7 µM (inactive) with CCRF-CEM; 33.7 µM in the assay on HCT-15; > 100 µM (inactive) with HOP-62; 26.5 µM (inactive) in the assay with IGROV-1. Moreover, the GI50 was 32.8 µM (inactive) in the assay with M14; > 100 µM (inactive) in the assay on NCI-H226; 27 µM (inactive) in the assay with OVCAR-8; > 100 µM (inactive) in the assay with RXF 393; > 100 µM (inactive) with SK-OV-3; 25.9 µM (inactive) in the assay on SW-620. The GI50 in the assay on TK-10 and in the assay with UO-31 was > 100 µM (inactive) throughout.

Turning to `CC(=O)OC(=O)O/C=C\CCl`, the GI50 in the assay on A498 was > 100 µM (inactive); in the assay with A549 it was > 100 µM (inactive); with CAKI-1, > 100 µM (inactive); in the assay with CCRF-CEM it was 93.8 µM (inactive); with HCT-15, above 100 µM; with HOP-62, > 100 µM (inactive). Further, the GI50 with IGROV-1, in the assay on M14, in the assay with NCI-H226, in the assay on OVCAR-8, in the assay on RXF 393 and with SK-OV-3 was > 100 µM (inactive) throughout. Further, the GI50 in the assay with SW-620, in the assay on TK-10 and in the assay on UO-31 was > 100 µM (inactive) each time.

For `CC(C)(C)C1CCP(=O)(c2ccccc2)CC1` (stereo unspecified), the GI50 in the assay with A498 is > 100 µM (inactive); in the assay on A549 it was > 100 µM (inactive); in the assay with CCRF-CEM, > 100 µM (inactive); in the assay on HCT-15, above 100 µM; in the assay on HOP-62 it was > 100 µM (inactive); in the assay on IGROV-1, > 100 µM (inactive). Moreover, the GI50 in the assay with M14, in the assay with NCI-H226, with OVCAR-8, with RXF 393, in the assay on SK-OV-3 and in the assay with SW-620 was > 100 µM (inactive) each time. Further, the GI50 in the assay on TK-10 and in the assay with UO-31 was > 100 µM (inactive) each time.

Consider `Cc1ccc(NC(=O)c2cccc([N+](=O)[O-])c2O)c([N+](=O)[O-])c1`, for which the GI50 in the assay on A498 is 16 µM (inactive); with A549, 21.6 µM (inactive); in the assay on CAKI-1, 29.5 µM (inactive); in the assay on CCRF-CEM it was > 100 µM (inactive); in the assay on HCT-15, 14.4 µM; in the assay with HOP-62, 20.5 µM (inactive). In addition, the GI50 was 21.5 µM (inactive) in the assay with HOP-92; 20.9 µM (inactive) in the assay with IGROV-1; 16.7 µM (inactive) with M14; 3.29 µM (inactive) with NCI-H226; 12.5 µM (inactive) in the assay on OVCAR-8; 11.3 µM (inactive) in the assay with RXF 393. Also, the GI50 in the assay on SK-OV-3 is 26.9 µM (inactive); in the assay with SW-620, 16.8 µM (inactive); in the assay on UO-31, 24.1 µM (inactive).
